The values below come from US12298319B2, “Method for measuring alpha value of muscarinic M1 receptor positive allosteric modulators” (Takeda Pharmaceutical Company Limited, priority 2017, dated 2025).

Each structure is given as a SMILES string. Where two headings read alike, the source gives them in different places.

This series can be described thus: Pharmacokinetics after oral administration to mice. The class given is in vivo, mouse. Particulars: for Cmax / Tmax / AUC(0-t): mouse, plasma, po; for AUC(0-t): read-out: AUC0-4 h. The procedure: Plasma concentration of Compound B at 30 and 1000 mg/kg. Plasma samples were collected at 0.5, 1, 2, 4 and 6 h after oral treatment. Results represent the mean. n=3 per group.

Broadly, the Cmax is the highest concentration seen after dosing. The Tmax is the time from dosing to the highest level. Turning to `Cn1cc(-c2ccc(CN3Cc4cccc(Oc5c(F)cccc5C#N)c4C3=O)cc2)cn1` [Compound B, 3-fluoro-2-((2-(4-(1-methyl-1H-pyrazol-4-yl)benzyl)-3-oxo-2,3-dihydro-1H-isoindol-4-yl)oxy)benzonitrile], where the note is “30 mg/kg p.o.”, the Cmax amounted to 270 ng/mL, the Tmax was determined as 2 h and the AUC(0-t) was 800 ng·h/mL. For the same compound, for the setting “1000 mg/kg p.o.”, the Cmax amounted to 970 ng/mL, the Tmax amounted to 1.7 h and the AUC(0-t) is 3020 ng·h/mL. In addition, the “plasma concentration at 1000 mg/kg relative to 30 mg/kg” value (p.o.) worked out at 3.6 fold.
